How the values were obtained:
[1] = system: dopamine transporter; conditions: PET scanning; cited from earlier work
[2] = Biodistribution and pharmacokinetic constants of [^18F]FP-CIT in normal mice; assay type: in vivo, C57BL/6 mice; conditions: for AUC / CL / Cmax / T1/2 / Tmax: normal mice (group I), 3.7 MBq i.v.
Procedure: Male C57BL/6 mice (group I) were anesthetized with 2% isoflurane in oxygen, and 3.7 MBq of [^18F]FP-CIT was intravenously injected via the tail vein. Mice were sacrificed at different time points (1, 5, 10, 30, 60, and 120 min after injection, n = 4 each), and the tissues of interest (blood, muscle, heart, lung, liver, spleen, stomach, intestine, kidney, bone, cerebellum, striatum, and remaining brain tissues) were harvested, weighed, and measured for radioactivity using a gamma counter (Wizard 1480; PerkinElmer, Waltham, MA, USA). The uptake in each tissue sample was expressed as a percentage of the injected dose per gram (%ID/g). The pharmacokinetic constants of [^18F]FP-CIT in normal C57BL/6 mice were calculated from the %ID/g results of its biodistribution.

[3] = 1 min post-injection (highest uptake), normal mice

## COC(=O)[C@H]1[C@@H](c2ccc(I)cc2)C[C@@H]2CC[C@H]1N2CCCF [[^18F]FP-CIT, N-(3-fluoropropyl)-2β-carboxymethoxy-3β-(4-iodophenyl) nortropane]
[1]
  time of transient equilibrium in time activity curves (specific binding to the striatum): 60 to 100 min
[2]; [3]
  uptake in cerebellum: 21.42 ± 12.19 %ID/g
  uptake in striatum: 23.50 ± 12.46 %ID/g
  uptake in the rest of the brain: 20.06 ± 12.12 %ID/g
[2]; 60 min after injection (highest uptake), normal mice
  uptake in the liver: 30.82 ± 1.64 %ID/g
[2]; blood
  AUC: 95.43 ± 4.34 %ID*min/g
  CL: 1.05 ± 0.05 cc/min
  Cmax: 2.68 ± 0.12 %ID/g
  T1/2: 11.12 ± 1.83 min
  Tmax: 1.00 ± 0.00 min
[2]; bone
  AUC: 636.73 ± 25.74 %ID*min/g
  CL: 0.16 ± 0.01 cc/min
  Cmax: 9.55 ± 1.48 %ID/g
  T1/2: 114.55 ± 23.62 min
  Tmax: 120.00 ± 0.00 min
[2]; brain, normal mice
  time of maximum concentration: 1 min
[2]; cerebellum
  AUC: 174.48 ± 20.00 %ID*min/g
  CL: 0.58 ± 0.07 cc/min
  Cmax: 10.97 ± 9.59 %ID/g
  T1/2: 17.30 ± 17.89 min
  Tmax: 1.00 ± 0.00 min
[2]; heart
  AUC: 180.65 ± 13.75 %ID*min/g
  CL: 0.56 ± 0.04 cc/min
  Cmax: 7.71 ± 0.74 %ID/g
  T1/2: 62.29 ± 4.86 min
  Tmax: 1.00 ± 0.00 min
[2]; intestine
  AUC: 614.35 ± 28.65 %ID*min/g
  CL: 0.16 ± 0.01 cc/min
  Cmax: 6.00 ± 0.47 %ID/g
  T1/2: 497.98 ± 350.19 min
  Tmax: 19.00 ± 27.58 min
[2]; kidney
  AUC: 680.50 ± 45.28 %ID*min/g
  CL: 0.15 ± 0.01 cc/min
  Cmax: 31.96 ± 5.10 %ID/g
  T1/2: 89.82 ± 11.39 min
  Tmax: 1.00 ± 0.00 min
[2]; liver
  AUC: 3095.50 ± 181.39 %ID*min/g
  CL: 0.03 ± 0.00 cc/min
  T1/2: 26.50 ± 4.4 min
  Tmax: 4.00 ± 2.00 min
[2]; lung
  AUC: 408.70 ± 65.06 %ID*min/g
  CL: 0.25 ± 0.04 cc/min
  Cmax: 21.31 ± 3.18 %ID/g
  T1/2: 79.46 ± 10.66 min
  Tmax: 1.00 ± 0.00 min
[2]; maintained for 120 min after injection, normal mice
  uptake in the intestine: approximately 5 %ID/g
[2]; muscle
  AUC: 150.08 ± 13.03 %ID*min/g
  CL: 0.67 ± 0.06 cc/min
  Cmax: 2.42 ± 0.98 %ID/g
  T1/2: 137.84 ± 198.01 min
  Tmax: 5.00 ± 0.00 min
[2]; rest of the brain
  AUC: 244.03 ± 34.63 %ID*min/g
  CL: 0.42 ± 0.06 cc/min
  Cmax: 17.19 ± 16.17 %ID/g
  T1/2: 55.64 ± 29.71 min
  Tmax: 1.00 ± 0.00 min
[2]; spleen
  AUC: 288.90 ± 39.35 %ID*min/g
  CL: 0.35 ± 0.05 cc/min
  Cmax: 14.52 ± 1.35 %ID/g
  T1/2: 81.36 ± 16.91 min
  Tmax: 3.00 ± 2.31 min
[2]; stomach
  AUC: 444.70 ± 47.17 %ID*min/g
  CL: 0.23 ± 0.02 cc/min
  Cmax: 7.14 ± 1.99 %ID/g
  T1/2: 177.39 ± 36.93 min
  Tmax: 7.50 ± 2.89 min
[2]; striatum
  AUC: 223.30 ± 37.82 %ID*min/g
  CL: 0.46 ± 0.08 cc/min
  T1/2: 39.62 ± 18.71 min
  Tmax: 1.00 ± 0.00 min
